Laboratory results published in patent publication US6689773B2, “Uracil substituted phenyl sulfamoyl carboxamides” (BASF Aktiengesellschaft, priority 2000, dated 2004).

Experiments:
Format in all cases: in vivo
[1] = test system: XANST, Cocklebur, Xanthium strumariam; assay: Preemergence herbicidal evaluation (Example 148); details: rating scale 0-9, two to four weeks after treatment
Procedure, shortened: (§1)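 Each species was planted separately in cups, its seed mixed into potting soil over roughly an inch of soil. Spraying with compound in aqueous acetone followed planting (~0.125–0.250 kg/ha). Overall appearance, chlorosis and stand were compared with a control after 2–4 weeks.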

[2] = test system: CHEAL, Lambsquarters, Chenopodium album, L. Common; assay: Preemergence herbicidal evaluation (Example 148); details: rating scale 0-9, two to four weeks after treatment
Procedure, shortened: as §1

[3] = test system: AMBEL, Ragweed, Common, Ambrosia artemiisifolia, L.; assay: Preemergence herbicidal evaluation (Example 148); details: rating scale 0-9, two to four weeks after treatment
Procedure, shortened: as §1

[4] = test system: ZEAMX, Field corn, Zea mays L.; assay: Preemergence herbicidal evaluation (Example 148); details: rating scale 0-9, two to four weeks after treatment
Procedure, shortened: as §1

[5] = test system: SETVI, Green foxtail, Setaria viridis, (L.)Beau; assay: Preemergence herbicidal evaluation (Example 148); details: rating scale 0-9, two to four weeks after treatment
Procedure, shortened: as §1

[6] = test system: IPOHE, Morningglory, Ivyleaf, Ipomoea hederacea, (L)Jacq.; assay: Preemergence herbicidal evaluation (Example 148); details: rating scale 0-9, two to four weeks after treatment
Procedure, shortened: as §1

[7] = test system: GLXMA, Soybean, Glycine max, (L.) Merr.; assay: Preemergence herbicidal evaluation (Example 148); details: rating scale 0-9, two to four weeks after treatment
Procedure, shortened: as §1

[8] = test system: TRZAW, Winter wheat, Tritium Aestivum, L. (Winter); assay: Preemergence herbicidal evaluation (Example 148); details: rating scale 0-9, two to four weeks after treatment
Procedure, shortened: as §1

[9] = test system: ECHCG, Barnyardgrass, Echinochloa crusgalli, (L.)Beau; assay: Preemergence herbicidal evaluation (Example 148); details: rating scale 0-9, two to four weeks after treatment
Procedure, shortened: as §1

[10] = test system: DIGSA, Crabgrass, (Hairy) L, Digitaria sanguinalis, (L)Scop; assay: Preemergence herbicidal evaluation (Example 148); details: rating scale 0-9, two to four weeks after treatment
Procedure, shortened: as §1

[11] = test system: ABUTH, Velvetleaf, Abutilon theophrasti, Medic.; assay: Preemergence herbicidal evaluation (Example 148); details: rating scale 0-9, two to four weeks after treatment
Procedure, shortened: as §1

[12] = test system: ALOMY, Blackgrass, Alopecurus myosuroides; assay: Preemergence herbicidal evaluation (Example 148); details: rating scale 0-9, two to four weeks after treatment
Procedure, shortened: as §1

[13] = test system: XANST, Cocklebur, Xanthium strumariam; assay: Postemergence herbicidal evaluation (Example 147); details: rating scale 0-9, two to three weeks after treatment
Procedure, shortened: (§2)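 First, seedlings were raised for about two weeks. Next, they were sprayed at 40 psi with compound (about 0.016 to 0.032 kg/ha) in acetone/water 80/20 containing 1.0% methylated seed oil. Finally, after two to three greenhouse weeks, overall appearance versus control was rated 0-9, averaging repeat tests.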

[14] = test system: CHEAL, Lambsquarters, Chenopodium album, L. Common; assay: Postemergence herbicidal evaluation (Example 147); details: rating scale 0-9, two to three weeks after treatment
Procedure, shortened: as §2

[15] = test system: AMBEL, Ragweed, Common, Ambrosia artemiisifolia, L.; assay: Postemergence herbicidal evaluation (Example 147); details: rating scale 0-9, two to three weeks after treatment
Procedure, shortened: as §2

[16] = test system: ZEAMX, Field corn, Zea mays L.; assay: Postemergence herbicidal evaluation (Example 147); details: rating scale 0-9, two to three weeks after treatment
Procedure, shortened: as §2

[17] = test system: SETVI, Green foxtail, Setaria viridis, (L.)Beau; assay: Postemergence herbicidal evaluation (Example 147); details: rating scale 0-9, two to three weeks after treatment
Procedure, shortened: as §2

[18] = test system: IPOHE, Morningglory, Ivyleaf, Ipomoea hederacea, (L)Jacq.; assay: Postemergence herbicidal evaluation (Example 147); details: rating scale 0-9, two to three weeks after treatment
Procedure, shortened: as §2

[19] = test system: GLXMA, Soybean, Glycine max, (L.) Merr.; assay: Postemergence herbicidal evaluation (Example 147); details: rating scale 0-9, two to three weeks after treatment
Procedure, shortened: as §2

[20] = test system: TRZAW, Winter wheat, Tritium Aestivum, L. (Winter); assay: Postemergence herbicidal evaluation (Example 147); details: rating scale 0-9, two to three weeks after treatment
Procedure, shortened: as §2

[21] = test system: ECHCG, Barnyardgrass, Echinochloa crusgalli, (L.)Beau; assay: Postemergence herbicidal evaluation (Example 147); details: rating scale 0-9, two to three weeks after treatment
Procedure, shortened: as §2

[22] = test system: DIGSA, Crabgrass, (Hairy) L, Digitaria sanguinalis, (L)Scop; assay: Postemergence herbicidal evaluation (Example 147); details: rating scale 0-9, two to three weeks after treatment
Procedure, shortened: as §2

[23] = test system: ABUTH, Velvetleaf, Abutilon theophrasti, Medic.; assay: Postemergence herbicidal evaluation (Example 147); details: rating scale 0-9, two to three weeks after treatment
Procedure, shortened: as §2

[24] = test system: ALOMY, Blackgrass, Alopecurus myosuroides; assay: Postemergence herbicidal evaluation (Example 147); details: rating scale 0-9, two to three weeks after treatment
Procedure, shortened: as §2

## Cn1c(C(F)(F)F)cc(=O)n(-c2cc(C(=O)NS(=O)(=O)NCc3cccs3)c(Cl)cc2F)c1=O [Example 77]
[1]; rate 0.125 kg/ha
  Preemergence herbicidal rating XANST: 3.0
[1]; rate 0.25 kg/ha
  Preemergence herbicidal rating XANST: 8.0
[2]; rate 0.125 kg/ha
  Preemergence herbicidal rating CHEAL: 9.0
[2]; rate 0.25 kg/ha
  Preemergence herbicidal rating CHEAL: 9.0
[3]; rate 0.125 kg/ha
  Preemergence herbicidal rating AMBEL: 9.0
[3]; rate 0.25 kg/ha
  Preemergence herbicidal rating AMBEL: 9.0
[4]; rate 0.125 kg/ha
  Preemergence herbicidal rating ZEAMX: 0.0
[4]; rate 0.25 kg/ha
  Preemergence herbicidal rating ZEAMX: 1.0
[5]; rate 0.125 kg/ha
  Preemergence herbicidal rating SETVI: 2.0
[5]; rate 0.25 kg/ha
  Preemergence herbicidal rating SETVI: 2.0
[6]; rate 0.125 kg/ha
  Preemergence herbicidal rating IPOHE: 7.0
[6]; rate 0.25 kg/ha
  Preemergence herbicidal rating IPOHE: 9.0
[7]; rate 0.125 kg/ha
  Preemergence herbicidal rating GLXMA: 1.0
[8]; rate 0.125 kg/ha
  Preemergence herbicidal rating TRZAW: 0.0
[8]; rate 0.25 kg/ha
  Preemergence herbicidal rating TRZAW: 0.0
[9]; rate 0.125 kg/ha
  Preemergence herbicidal rating ECHCG: 2.0
[9]; rate 0.25 kg/ha
  Preemergence herbicidal rating ECHCG: 3.0
[10]; rate 0.125 kg/ha
  Preemergence herbicidal rating DIGSA: 2.0
[10]; rate 0.25 kg/ha
  Preemergence herbicidal rating DIGSA: 4.0
[11]; rate 0.125 kg/ha
  Preemergence herbicidal rating ABUTH: 9.0
[11]; rate 0.25 kg/ha
  Preemergence herbicidal rating ABUTH: 9.0
[12]; rate 0.125 kg/ha
  Preemergence herbicidal rating ALMOY: 0.0
[12]; rate 0.25 kg/ha
  Preemergence herbicidal rating ALMOY: 0.0
[13]; rate 0.016 kg/ha
  Postemergence herbicidal rating XANST: 9.0
[13]; rate 0.032 kg/ha
  Postemergence herbicidal rating XANST: 9.0
[14]; rate 0.016 kg/ha
  Postemergence herbicidal rating CHEAL: 6.0
[14]; rate 0.032 kg/ha
  Postemergence herbicidal rating CHEAL: 7.0
[15]; rate 0.016 kg/ha
  Postemergence herbicidal rating AMBEL: 8.0
[15]; rate 0.032 kg/ha
  Postemergence herbicidal rating AMBEL: 8.0
[16]; rate 0.016 kg/ha
  Postemergence herbicidal rating ZEAMX: 6.0
[16]; rate 0.032 kg/ha
  Postemergence herbicidal rating ZEAMX: 6.5
[17]; rate 0.016 kg/ha
  Postemergence herbicidal rating SETVI: 5.0
[17]; rate 0.032 kg/ha
  Postemergence herbicidal rating SETVI: 6.0
[18]; rate 0.016 kg/ha
  Postemergence herbicidal rating IPOHE: 9.0
[18]; rate 0.032 kg/ha
  Postemergence herbicidal rating IPOHE: 9.0
[19]; rate 0.016 kg/ha
  Postemergence herbicidal rating GLXMA: 7.5
[19]; rate 0.032 kg/ha
  Postemergence herbicidal rating GLXMA: 7.5
[20]; rate 0.016 kg/ha
  Postemergence herbicidal rating TRZAW: 4.5
[20]; rate 0.032 kg/ha
  Postemergence herbicidal rating TRZAW: 5.0
[21]; rate 0.016 kg/ha
  Postemergence herbicidal rating ECHCG: 4.0
[21]; rate 0.032 kg/ha
  Postemergence herbicidal rating ECHCG: 6.0
[22]; rate 0.016 kg/ha
  Postemergence herbicidal rating DIGSA: 4.0
[22]; rate 0.032 kg/ha
  Postemergence herbicidal rating DIGSA: 4.0
[23]; rate 0.016 kg/ha
  Postemergence herbicidal rating ABUTH: 9.0
[23]; rate 0.032 kg/ha
  Postemergence herbicidal rating ABUTH: 9.0
[24]; rate 0.016 kg/ha
  Postemergence herbicidal rating ALMOY: 1.0
[24]; rate 0.032 kg/ha
  Postemergence herbicidal rating ALMOY: 1.0

## CCNS(=O)(=O)NC(=O)c1cc(-n2c(=O)cc(C(F)(F)F)n(C)c2=O)c(F)cc1Cl [Example 80]
[1]; rate 0.125 kg/ha
  Preemergence herbicidal rating XANST: 0.0
[1]; rate 0.25 kg/ha
  Preemergence herbicidal rating XANST: 1.0
[2]; rate 0.125 kg/ha
  Preemergence herbicidal rating CHEAL: 5.0
[2]; rate 0.25 kg/ha
  Preemergence herbicidal rating CHEAL: 8.0
[3]; rate 0.125 kg/ha
  Preemergence herbicidal rating AMBEL: 1.0
[3]; rate 0.25 kg/ha
  Preemergence herbicidal rating AMBEL: 3.0
[4]; rate 0.125 kg/ha
  Preemergence herbicidal rating ZEAMX: 0.0
[4]; rate 0.25 kg/ha
  Preemergence herbicidal rating ZEAMX: 0.0
[5]; rate 0.125 kg/ha
  Preemergence herbicidal rating SETVI: 0.0
[5]; rate 0.25 kg/ha
  Preemergence herbicidal rating SETVI: 0.0
[6]; rate 0.125 kg/ha
  Preemergence herbicidal rating IPOHE: 0.0
[6]; rate 0.25 kg/ha
  Preemergence herbicidal rating IPOHE: 0.0
[7]; rate 0.125 kg/ha
  Preemergence herbicidal rating GLXMA: 0.0
[7]; rate 0.25 kg/ha
  Preemergence herbicidal rating GLXMA: 0.0
[8]; rate 0.125 kg/ha
  Preemergence herbicidal rating TRZAW: 0.0
[8]; rate 0.25 kg/ha
  Preemergence herbicidal rating TRZAW: 0.0
[9]; rate 0.125 kg/ha
  Preemergence herbicidal rating ECHCG: 0.0
[9]; rate 0.25 kg/ha
  Preemergence herbicidal rating ECHCG: 3.0
[10]; rate 0.125 kg/ha
  Preemergence herbicidal rating DIGSA: 0.0
[10]; rate 0.25 kg/ha
  Preemergence herbicidal rating DIGSA: 1.0
[11]; rate 0.125 kg/ha
  Preemergence herbicidal rating ABUTH: 1.0
[11]; rate 0.25 kg/ha
  Preemergence herbicidal rating ABUTH: 5.0
[12]; rate 0.125 kg/ha
  Preemergence herbicidal rating ALMOY: 0.0
[12]; rate 0.25 kg/ha
  Preemergence herbicidal rating ALMOY: 0.0
[13]; rate 0.016 kg/ha
  Postemergence herbicidal rating XANST: 8.0
[13]; rate 0.032 kg/ha
  Postemergence herbicidal rating XANST: 9.0
[14]; rate 0.016 kg/ha
  Postemergence herbicidal rating CHEAL: 3.0
[14]; rate 0.032 kg/ha
  Postemergence herbicidal rating CHEAL: 4.0
[15]; rate 0.016 kg/ha
  Postemergence herbicidal rating AMBEL: 7.0
[15]; rate 0.032 kg/ha
  Postemergence herbicidal rating AMBEL: 8.0
[16]; rate 0.016 kg/ha
  Postemergence herbicidal rating ZEAMX: 1.5
[16]; rate 0.032 kg/ha
  Postemergence herbicidal rating ZEAMX: 4.0
[17]; rate 0.016 kg/ha
  Postemergence herbicidal rating SETVI: 5.0
[17]; rate 0.032 kg/ha
  Postemergence herbicidal rating SETVI: 6.0
[18]; rate 0.016 kg/ha
  Postemergence herbicidal rating IPOHE: 9.0
[18]; rate 0.032 kg/ha
  Postemergence herbicidal rating IPOHE: 9.0
[19]; rate 0.016 kg/ha
  Postemergence herbicidal rating GLXMA: 8.0
[19]; rate 0.032 kg/ha
  Postemergence herbicidal rating GLXMA: 8.0
[20]; rate 0.016 kg/ha
  Postemergence herbicidal rating TRZAW: 3.0
[20]; rate 0.032 kg/ha
  Postemergence herbicidal rating TRZAW: 4.0
[21]; rate 0.016 kg/ha
  Postemergence herbicidal rating ECHCG: 4.0
[21]; rate 0.032 kg/ha
  Postemergence herbicidal rating ECHCG: 6.0
[22]; rate 0.016 kg/ha
  Postemergence herbicidal rating DIGSA: 3.0
[22]; rate 0.032 kg/ha
  Postemergence herbicidal rating DIGSA: 4.0
[23]; rate 0.016 kg/ha
  Postemergence herbicidal rating ABUTH: 7.0
[23]; rate 0.032 kg/ha
  Postemergence herbicidal rating ABUTH: 9.0
[24]; rate 0.016 kg/ha
  Postemergence herbicidal rating ALMOY: 0.0
[24]; rate 0.032 kg/ha
  Postemergence herbicidal rating ALMOY: 1.0
